The subject of experiment [1] is PD-1. The conditions noted are these: PD-1 inhibition assay, literature value; read-out: IC50 previously reported; cited from earlier work.
For experiment [2], the target named is PD-1/PD-L1 (Homo sapiens, UniProt Q9NZQ7). The conditions noted are these: Table 11; known small molecule PD-1/PD-L1 blockers; cited from earlier work.
Experiment [3] deals with T1, PD-1/PD-L1 interaction (Homo sapiens, UniProt Q9NZQ7).
T1 construct: Tag1 or Tag2 (undisclosed kit tag); purchased Cisbio
Put plainly: Cisbio PD-1/PD-L1 Homogeneous Time-Resolved Fluorescence (HTRF) binding assay. To be noted: for IC50: read-out: Reported IC50. The source says: The ability of compounds of the disclosure to inhibit the PD-1/PD-L1 interaction was investigated using a Cisbio PD-1/PD-L1 Homogeneous Time-Resolved Fluorescence (HTRF) binding assay (https://ca.cisbio.net/human-pd1-pd-l1-biochemical-binding-assay-44666).
With the assay, the interaction between PD-L1 and PD-1 is detected by using anti-Tag1 labeled with Europium (HTRF donor) and anti-Tag2 labeled with XL665 (HTRF acceptor). When the donor and acceptor antibodies are brought into close proximity due to PD-L1 and PD-1 binding, excitation of the donor antibody triggers fluorescence resonance energy transfer (FRET) towards the acceptor antibody, which in turn emits specifically at 665 nm. This specific signal is directly proportional to the extent of PD-1/PD-L1 interaction. Thus, a compound blocking the PD-1/PD-L1 interaction causes a reduction in the HTRF signal.
The assay was carried out in accordance with the product insert.

The mark [4] stands for this setting: Table 10, * n = 7, median, P1 and P2 are different isomers.
Where [5] appears, read: Table 10, same result in μM, P1 and P2 are different isomers.

Like-named read-outs stand apart in the source and are kept apart here.

One may read the IC50 as the concentration needed to halve the response being measured.

T1 sequence (Q9NZQ7 19-238 limits assumed): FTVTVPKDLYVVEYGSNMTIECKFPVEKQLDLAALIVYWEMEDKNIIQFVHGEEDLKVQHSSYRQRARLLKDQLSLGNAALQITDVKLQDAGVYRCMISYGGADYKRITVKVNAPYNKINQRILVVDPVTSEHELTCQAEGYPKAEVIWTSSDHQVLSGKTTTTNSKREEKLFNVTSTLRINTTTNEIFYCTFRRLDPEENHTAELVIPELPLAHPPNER
Sequence of PD-1/PD-L1 (Q9NZQ7 19-290): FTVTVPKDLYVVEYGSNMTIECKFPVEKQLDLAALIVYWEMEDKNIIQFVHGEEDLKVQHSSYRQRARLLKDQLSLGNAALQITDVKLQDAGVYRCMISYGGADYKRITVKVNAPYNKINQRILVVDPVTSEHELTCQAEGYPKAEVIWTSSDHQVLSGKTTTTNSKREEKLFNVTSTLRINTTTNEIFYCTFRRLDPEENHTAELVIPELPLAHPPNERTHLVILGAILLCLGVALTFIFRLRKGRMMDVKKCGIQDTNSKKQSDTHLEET

As for `COc1cc(OCc2cccc(-c3ccccc3)c2C)cc(OC)c1CN1CCCCC1C(=O)O` (stereo not drawn) [Compound S7911], the IC50 in experiment [1] was 6 nM.

Turning to `Cc1c(Nc2nc(C(F)F)nc3cc(CN4CC[C@](C)(O)C4)cnc23)cccc1-c1cccc(-c2nc3cc(CN4CCC(C(=O)O)CC4)cc(C#N)c3o2)c1C` [INB086550], in experiment [2], the KD/IC50 is under 10 nM.

As to `O=C(C1CC1)N1CCN(Cc2csc(NC[C@@H]3CCCN3Cc3ccc(Br)cc3)n2)CC1` [Compound A504], the IC50 came out at 2 µM in experiment [3] (Table 9) and 2 µM in experiment [3] (Table 9, same result in μM).

Take `COc1cc(CN2CCN(Cc3csc(NCC4CCCN4C(C)c4ccc(Br)cc4)n3)CC2)cc(OC)c1OC` (stereo not drawn) [Compound A601]: the IC50 in experiment [3] (Table 9) worked out at 0.159 µM; in experiment [3] (Table 9, same result in μM), 0.16 µM.

In the case of `COc1cc(C(=O)N2CCN(Cc3csc(NC[C@@H]4CCCN4Cc4ccc(Br)cc4)n3)CC2)cc(OC)c1OC` [Compound 2678-10], the IC50 in experiment [3] (Table 8, Run: Pure) amounted to 0.33 µM; in experiment [3] (Table 9) it was 0.051 µM; in experiment [3] (Table 9, same result in μM), 0.051 µM. In addition, in experiment [3] (Table 11, compound of the disclosure), the KD/IC50 is on record as 330 nM.

Turning to `COc1cc(CN2CCN(Cc3csc(NCC4CCCN4CC4CC4)n3)CC2)cc(OC)c1OC` (stereo not drawn) [Compound A506], the IC50 is over 50 µM in experiment [3] (Table 9) and over 50 µM in experiment [3] (Table 9, same result in μM).

Regarding `COc1cc(C(=O)N2C[C@H](C)N(Cc3nsc(NC[C@@H]4CCCN4Cc4ccc(Br)cc4)n3)C[C@@H]2C)cc(OC)c1OC` [Compound B804], the IC50 in experiment [3] (setting [4]) and in experiment [3] (setting [5]) was 0.021 µM each time.

`COc1cccc(C(=O)N2CCN(Cc3csc(NC[C@@H]4CCCN4Cc4ccc(Br)cc4)n3)CC2)c1` [Compound A403]: the IC50 in experiment [3] (Table 9) stood at 0.53 µM; in experiment [3] (Table 9, same result in μM), 0.53 µM.

Consider `O=C(CCc1nc2ccccc2[nH]1)N1CCN(Cc2csc(NC[C@@H]3CCCN3Cc3ccc(F)cc3)n2)CC1` [Compound 2678-3], for which, in experiment [3] (Table 8, Run: Pure), the IC50 was determined as 7 µM.

For `COc1cc(C(=O)N2CCN(Cc3csc(NC[C@@H]4CCCN4Cc4ccncc4)n3)CC2)cc(OC)c1OC` [Compound A309], the half-inhibitory concentration (IC50) in experiment [3] (Table 9) was determined as 10.4 µM; in experiment [3] (Table 9, same result in μM), 10 µM.

As to `COc1cc(CN2CCN(Cc3csc(NCC4CCCN4Cc4ccc(Br)cc4)n3)CC2)cc(OC)c1OC` (stereo not drawn) [Compound A501], the concentration for half-maximal inhibition (IC50) in experiment [3] (Table 9) turned out to be 0.74 µM; in experiment [3] (Table 9, same result in μM), 0.74 µM.

Take `O=C(c1ccc(=O)[nH]c1)N1CCN(Cc2nsc(NC[C@@H]3CCCN3Cc3ccc(Br)cc3)n2)CC1` [Compound B413]: the IC50 in experiment [3] (setting [4]) and in experiment [3] (setting [5]) was 0.44 µM each time.

As for `COc1cc(C(=O)N2C[C@H](C)N(Cc3nsc(NC[C@@H]4C[C@@H](O)CN4Cc4ccc(Br)cc4)n3)C[C@@H]2C)cc(OC)c1OC` [Compound B911], the IC50 in experiment [3] (setting [4]) and in experiment [3] (setting [5]) was 0.033 µM each time.

For the molecule `COc1cc(C(=O)N2CCN(Cc3nsc(NC[C@@H]4C[C@@H](O)CN4[C@@H](C)c4ccc(Br)cc4)n3)CC2)cc(OC)c1OC` [Compound B910], the half-inhibitory concentration (IC50) in experiment [3] (setting [4]) and in experiment [3] (setting [5]) was 0.044 µM throughout.

With `Cn1cnc2cc(C(=O)N3CCN(Cc4csc(NCC5CCCN5Cc5ccc(Br)cc5)n4)CC3)ccc21` (stereo not drawn) [Compound A406], the IC50 was 0.98 µM in experiment [3] (Table 9) and 0.98 µM in experiment [3] (Table 9, same result in μM).

Turning to `CS(=O)(=O)c1cncc(COc2cc(OCc3cccc(-c4cccc(-c5ccc6c(c5)C[C@@H](N)C6)c4Cl)c3Cl)c(Br)cc2CN2CCCC[C@H]2C(=O)O)c1` [GS-4224, Example A], in experiment [2], the KD/IC50 is 0.09 nM.

Turning to `COc1cc(C(=O)N2CCN(Cc3csc(NC[C@@H]4CCCN4Cc4ccccc4Br)n3)CC2)cc(OC)c1OC` [Compound A306], the IC50 in experiment [3] (Table 9) came out at 40 µM; in experiment [3] (Table 9, same result in μM), 40 µM.

For the molecule `COc1cc(C(=O)N2CCN(Cc3nsc(NC[C@@H]4CCCN4Cc4ccc(Br)c(F)c4)n3)CC2)cc(OC)c1OC` [Compound B319], the IC50 in experiment [3] (setting [4]) and in experiment [3] (setting [5]) was 0.015 µM in each case.

For the molecule `COc1cc(C(=O)N2CCN(Cc3nccc(NC[C@@H]4CCCN4Cc4ccc(Br)cc4)n3)CC2)cc(OC)c1OC` [Compound B709], the IC50 in experiment [3] (setting [4]) and in experiment [3] (setting [5]) was 8 µM each time.

As for `O=C(CCc1nc2ccccc2[nH]1)N1CCN(Cc2csc(NC[C@@H]3CCCN3Cc3ccc(Br)cc3)n2)CC1` [Compound 2678-2], the IC50 in experiment [3] (Table 8, Run: Pure) amounted to 1.9 µM.

For `COc1cc(C(=O)N2CCN(Cc3csc(N(C)C[C@@H]4CCCN4Cc4ccc(Br)cc4)n3)CC2)cc(OC)c1OC` [Compound A606], the half-maximal inhibitory concentration (IC50) was over 50 µM in experiment [3] (Table 9) and over 50 µM in experiment [3] (Table 9, same result in μM).

Regarding `COc1ccc(C(=O)N2CCN(Cc3csc(NC[C@@H]4CCCN4Cc4ccc(Br)cc4)n3)CC2)cc1OC` [Compound A402], the IC50 in experiment [3] (Table 9) is 0.62 µM; in experiment [3] (Table 9, same result in μM), 0.62 µM.

For `COc1cc(C(=O)N2CCN(Cc3csc(NC[C@@H]4CCCN4Cc4ccc(Br)c(F)c4)n3)CC2)cc(OC)c1OC` [Compound B318], the IC50 in experiment [3] (Table 9) is 0.092 µM; in experiment [3] (Table 9, same result in μM), 0.092 µM.

Regarding `O=C(c1ccco1)N1CCN(Cc2csc(NC[C@@H]3CCCN3CCCc3nc4ccccc4[nH]3)n2)CC1` [Compound 2678-72], the half-maximal inhibitory concentration (IC50) in experiment [3] (Table 8, Run: Pure (70% Pure)) is 11 µM.

For the molecule `Cn1cc(C(=O)N2CCN(Cc3csc(NC[C@@H]4CCCN4Cc4ccc(Br)cc4)n3)CC2)ccc1=O` [Compound B414], the IC50 in experiment [3] (Table 9) was over 5 µM; in experiment [3] (Table 9, same result in μM), over 5 µM.

As for `COc1cc(C(=O)N2CCN([C@@H](C)c3csc(NC[C@@H]4CCCN4Cc4ccc(Br)cc4)n3)CC2)cc(OC)c1OC` [Compound A604], the IC50 in experiment [3] (Table 9) is 0.215 µM; in experiment [3] (Table 9, same result in μM) it was 0.22 µM.

Regarding `COc1cc(C(=O)N2CCN(Cc3csc(NC[C@@H]4C[C@@H](OC)CN4Cc4ccc(Br)cc4)n3)CC2)cc(OC)c1OC` [Compound A705], the IC50 in experiment [3] (Table 9) is 0.171 µM; in experiment [3] (Table 9, same result in μM), 0.17 µM.

Regarding `COc1cc(C(=O)N2CCN(Cc3nsc(NC[C@@H]4CCCN4Cc4ccc(Br)cc4)n3)CC2)cc(OC)c1OC` [Compound A702], the IC50 in experiment [3] (setting [4]) and in experiment [3] (setting [5]) was 0.015 µM in each case.

`O=C(c1ccc2c(c1)OCO2)N1CCN(Cc2csc(NC[C@@H]3CCCN3Cc3ccc(Br)cc3)n2)CC1` [Compound A404]: the IC50 in experiment [3] (Table 9) turned out to be 0.88 µM; in experiment [3] (Table 9, same result in μM), 0.88 µM.

Source of the values: patent publication US20230219942A1, “COMPOUNDS COMPRISING A THREE RING CORE AS PD-1/PD-L1 BLOCKERS” (RELIVE THERAPEUTICS INC., priority 2020, published 2023).
